Experimental data taken from ChEMBL document CHEMBL5465560, “Selectivity Literature for EUbOPEN Chemogenomic Library” (2024).

Tests used:
[1] = biological target: T1, Serine/threonine-protein kinase LATS1 (Homo sapiens) (UniProt O95835); assay: Selectivity interaction (KinomeScan (DiscoverX)) EUB0000229b LATS1; settings: at 10 µM
T1 sequence (whole entry): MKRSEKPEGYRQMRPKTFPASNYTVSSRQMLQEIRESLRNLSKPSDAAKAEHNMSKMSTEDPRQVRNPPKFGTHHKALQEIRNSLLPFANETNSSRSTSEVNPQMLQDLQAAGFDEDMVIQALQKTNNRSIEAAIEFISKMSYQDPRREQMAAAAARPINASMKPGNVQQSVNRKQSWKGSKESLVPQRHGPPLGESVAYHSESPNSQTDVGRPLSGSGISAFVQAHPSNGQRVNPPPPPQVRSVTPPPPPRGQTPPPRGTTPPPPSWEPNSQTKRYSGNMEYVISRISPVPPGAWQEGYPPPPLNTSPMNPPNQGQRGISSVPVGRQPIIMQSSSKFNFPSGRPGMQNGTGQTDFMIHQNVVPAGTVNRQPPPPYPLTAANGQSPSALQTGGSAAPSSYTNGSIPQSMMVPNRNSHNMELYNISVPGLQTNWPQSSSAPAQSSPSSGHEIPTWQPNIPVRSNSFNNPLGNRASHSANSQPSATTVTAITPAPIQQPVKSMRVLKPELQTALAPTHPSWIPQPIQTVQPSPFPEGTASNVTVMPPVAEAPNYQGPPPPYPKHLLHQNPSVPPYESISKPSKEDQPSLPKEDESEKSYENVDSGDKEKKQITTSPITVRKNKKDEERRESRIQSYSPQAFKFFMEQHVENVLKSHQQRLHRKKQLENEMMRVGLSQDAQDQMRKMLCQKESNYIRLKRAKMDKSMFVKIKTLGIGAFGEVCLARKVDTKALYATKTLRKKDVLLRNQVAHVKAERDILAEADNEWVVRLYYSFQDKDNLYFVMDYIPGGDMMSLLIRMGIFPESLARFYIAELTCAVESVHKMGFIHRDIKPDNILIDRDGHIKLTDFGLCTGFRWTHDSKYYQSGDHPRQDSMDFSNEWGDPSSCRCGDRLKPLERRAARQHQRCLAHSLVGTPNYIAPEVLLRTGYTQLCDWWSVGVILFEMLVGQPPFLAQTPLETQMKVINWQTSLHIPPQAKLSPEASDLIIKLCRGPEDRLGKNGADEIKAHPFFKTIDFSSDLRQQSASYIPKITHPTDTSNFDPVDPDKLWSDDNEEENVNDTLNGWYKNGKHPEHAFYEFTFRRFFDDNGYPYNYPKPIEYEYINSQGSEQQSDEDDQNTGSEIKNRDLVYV

[2] = biological target: Serine/threonine-protein kinase MRCK alpha (Homo sapiens) (UniProt Q5VT25); assay: Selectivity interaction (KinomeScan (DiscoverX)) EUB0000655a CDC42BPA; settings: at 10 µM
[3] = biological target: Serine/threonine-protein kinase Nek4 (Homo sapiens) (UniProt P51957); assay: Selectivity interaction (Kinase panel (KiNativ target engagement assay in Jurkat cells)) EUB0001635a NEK4; format: cell-based; settings: at 1 µM
[4] = biological target: Serine/threonine-protein kinase tousled-like 2 (Homo sapiens) (UniProt Q86UE8); settings: at 10 µM
[5] = biological target: cAMP-dependent protein kinase catalytic subunit alpha (Homo sapiens, UniProt P17612); assay: Selectivity interaction (Kinase panel (Z-LYTE Assay)) EUB0001632a PRKACA; settings: at 10 µM
[6] = biological target: T2, Mitogen-activated protein kinase kinase kinase 5 (Homo sapiens) (UniProt Q99683); assay: Selectivity interaction (ActivX KiNativ screen (kinase selectivity in THP-1 cell lysates)) EUB0000639a MAP3K5; format: subcellular; settings: lysate
T2 sequence (whole entry): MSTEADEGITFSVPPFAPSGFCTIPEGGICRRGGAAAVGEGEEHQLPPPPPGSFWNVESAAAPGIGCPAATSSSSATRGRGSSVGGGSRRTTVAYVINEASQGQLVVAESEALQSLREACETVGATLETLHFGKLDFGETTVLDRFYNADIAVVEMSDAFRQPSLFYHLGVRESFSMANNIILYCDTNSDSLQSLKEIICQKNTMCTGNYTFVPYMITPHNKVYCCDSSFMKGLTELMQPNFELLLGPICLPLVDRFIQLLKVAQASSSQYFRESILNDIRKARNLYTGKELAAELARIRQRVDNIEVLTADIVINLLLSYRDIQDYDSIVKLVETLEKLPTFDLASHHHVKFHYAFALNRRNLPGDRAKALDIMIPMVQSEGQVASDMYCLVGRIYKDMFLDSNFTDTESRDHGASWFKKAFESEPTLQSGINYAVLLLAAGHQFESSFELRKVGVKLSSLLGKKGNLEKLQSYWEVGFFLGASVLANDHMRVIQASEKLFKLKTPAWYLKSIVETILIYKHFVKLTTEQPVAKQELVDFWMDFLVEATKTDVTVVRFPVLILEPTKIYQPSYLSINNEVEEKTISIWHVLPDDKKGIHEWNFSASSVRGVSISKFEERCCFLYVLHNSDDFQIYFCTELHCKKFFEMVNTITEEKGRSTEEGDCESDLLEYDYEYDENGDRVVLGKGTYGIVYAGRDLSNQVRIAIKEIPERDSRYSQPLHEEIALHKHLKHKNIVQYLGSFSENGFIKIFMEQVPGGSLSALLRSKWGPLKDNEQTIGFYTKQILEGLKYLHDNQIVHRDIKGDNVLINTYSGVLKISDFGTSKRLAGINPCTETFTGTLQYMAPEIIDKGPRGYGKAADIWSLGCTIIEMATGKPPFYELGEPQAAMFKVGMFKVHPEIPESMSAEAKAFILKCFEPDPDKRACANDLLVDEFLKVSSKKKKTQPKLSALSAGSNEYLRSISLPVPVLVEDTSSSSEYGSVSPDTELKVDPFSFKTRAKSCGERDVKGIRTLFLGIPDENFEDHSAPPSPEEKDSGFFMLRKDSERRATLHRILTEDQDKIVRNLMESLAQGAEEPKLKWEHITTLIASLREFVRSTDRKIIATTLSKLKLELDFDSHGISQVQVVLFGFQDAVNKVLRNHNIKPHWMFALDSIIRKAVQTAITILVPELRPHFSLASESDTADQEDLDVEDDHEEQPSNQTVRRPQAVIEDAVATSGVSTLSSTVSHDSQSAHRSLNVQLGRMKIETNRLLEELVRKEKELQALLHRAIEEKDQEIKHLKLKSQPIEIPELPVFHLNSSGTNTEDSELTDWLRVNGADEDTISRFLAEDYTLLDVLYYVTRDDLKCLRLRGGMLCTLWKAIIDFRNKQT

[7] = biological target: Thromboxane-A synthase (Homo sapiens) (UniProt P24557); assay: Selectivity interaction (Eurofins safety panel) EUB0001564a CYP5A1; settings: at 10 µM
[8] = biological target: Mitogen-activated protein kinase kinase kinase 4 (Homo sapiens) (UniProt Q9Y6R4); assay: Selectivity interaction (ActivX KiNativ screen (ex vivo kinase selectivity in human PBMCs)) EUB0001619a MAP3K4; format: cell-based; settings: PBMC, at 1 µM
Mitogen-activated protein kinase kinase kinase 4 (Homo sapiens), sequence (Q9Y6R4 whole entry): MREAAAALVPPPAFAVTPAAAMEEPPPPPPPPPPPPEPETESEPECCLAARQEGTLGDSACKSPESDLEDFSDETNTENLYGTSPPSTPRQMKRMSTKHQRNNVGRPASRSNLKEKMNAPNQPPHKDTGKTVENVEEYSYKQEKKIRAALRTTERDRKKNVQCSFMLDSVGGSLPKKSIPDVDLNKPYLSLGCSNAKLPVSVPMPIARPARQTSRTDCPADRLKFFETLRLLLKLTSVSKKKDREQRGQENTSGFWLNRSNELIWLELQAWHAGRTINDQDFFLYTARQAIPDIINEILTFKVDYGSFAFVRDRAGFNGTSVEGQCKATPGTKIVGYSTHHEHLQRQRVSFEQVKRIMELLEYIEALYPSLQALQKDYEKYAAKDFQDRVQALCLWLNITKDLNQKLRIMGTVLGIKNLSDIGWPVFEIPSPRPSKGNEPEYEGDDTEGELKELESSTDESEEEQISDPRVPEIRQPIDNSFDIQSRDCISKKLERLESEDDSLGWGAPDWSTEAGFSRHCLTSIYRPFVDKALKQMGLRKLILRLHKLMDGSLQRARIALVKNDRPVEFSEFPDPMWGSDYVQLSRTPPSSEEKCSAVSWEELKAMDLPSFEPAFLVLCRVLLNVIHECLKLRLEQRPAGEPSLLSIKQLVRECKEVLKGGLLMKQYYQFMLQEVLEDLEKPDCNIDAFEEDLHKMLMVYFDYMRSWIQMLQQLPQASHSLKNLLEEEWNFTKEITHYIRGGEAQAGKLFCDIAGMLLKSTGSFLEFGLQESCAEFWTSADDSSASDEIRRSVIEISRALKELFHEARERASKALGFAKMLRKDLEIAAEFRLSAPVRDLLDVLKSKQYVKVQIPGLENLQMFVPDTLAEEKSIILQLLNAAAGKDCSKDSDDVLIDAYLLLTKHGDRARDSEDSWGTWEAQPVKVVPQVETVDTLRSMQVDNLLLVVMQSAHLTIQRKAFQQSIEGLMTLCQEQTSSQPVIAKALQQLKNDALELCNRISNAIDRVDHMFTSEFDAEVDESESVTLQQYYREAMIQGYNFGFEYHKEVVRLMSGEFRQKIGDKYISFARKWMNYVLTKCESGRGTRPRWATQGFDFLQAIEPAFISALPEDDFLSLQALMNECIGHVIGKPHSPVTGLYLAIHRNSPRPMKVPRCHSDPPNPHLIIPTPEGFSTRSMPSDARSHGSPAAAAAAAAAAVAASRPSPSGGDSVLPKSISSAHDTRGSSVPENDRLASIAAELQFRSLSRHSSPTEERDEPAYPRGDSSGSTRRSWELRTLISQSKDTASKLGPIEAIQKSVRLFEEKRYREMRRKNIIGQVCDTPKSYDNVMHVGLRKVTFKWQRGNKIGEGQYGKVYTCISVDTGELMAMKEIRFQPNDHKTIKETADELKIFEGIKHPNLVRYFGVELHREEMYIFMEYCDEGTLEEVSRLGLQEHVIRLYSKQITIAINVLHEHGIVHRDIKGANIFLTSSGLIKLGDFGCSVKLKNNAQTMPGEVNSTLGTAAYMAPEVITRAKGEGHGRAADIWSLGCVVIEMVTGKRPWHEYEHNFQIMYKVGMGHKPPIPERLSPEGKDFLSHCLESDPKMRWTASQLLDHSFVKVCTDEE

Serine/threonine-protein kinase MRCK alpha (Homo sapiens), sequence (Q5VT25 whole entry): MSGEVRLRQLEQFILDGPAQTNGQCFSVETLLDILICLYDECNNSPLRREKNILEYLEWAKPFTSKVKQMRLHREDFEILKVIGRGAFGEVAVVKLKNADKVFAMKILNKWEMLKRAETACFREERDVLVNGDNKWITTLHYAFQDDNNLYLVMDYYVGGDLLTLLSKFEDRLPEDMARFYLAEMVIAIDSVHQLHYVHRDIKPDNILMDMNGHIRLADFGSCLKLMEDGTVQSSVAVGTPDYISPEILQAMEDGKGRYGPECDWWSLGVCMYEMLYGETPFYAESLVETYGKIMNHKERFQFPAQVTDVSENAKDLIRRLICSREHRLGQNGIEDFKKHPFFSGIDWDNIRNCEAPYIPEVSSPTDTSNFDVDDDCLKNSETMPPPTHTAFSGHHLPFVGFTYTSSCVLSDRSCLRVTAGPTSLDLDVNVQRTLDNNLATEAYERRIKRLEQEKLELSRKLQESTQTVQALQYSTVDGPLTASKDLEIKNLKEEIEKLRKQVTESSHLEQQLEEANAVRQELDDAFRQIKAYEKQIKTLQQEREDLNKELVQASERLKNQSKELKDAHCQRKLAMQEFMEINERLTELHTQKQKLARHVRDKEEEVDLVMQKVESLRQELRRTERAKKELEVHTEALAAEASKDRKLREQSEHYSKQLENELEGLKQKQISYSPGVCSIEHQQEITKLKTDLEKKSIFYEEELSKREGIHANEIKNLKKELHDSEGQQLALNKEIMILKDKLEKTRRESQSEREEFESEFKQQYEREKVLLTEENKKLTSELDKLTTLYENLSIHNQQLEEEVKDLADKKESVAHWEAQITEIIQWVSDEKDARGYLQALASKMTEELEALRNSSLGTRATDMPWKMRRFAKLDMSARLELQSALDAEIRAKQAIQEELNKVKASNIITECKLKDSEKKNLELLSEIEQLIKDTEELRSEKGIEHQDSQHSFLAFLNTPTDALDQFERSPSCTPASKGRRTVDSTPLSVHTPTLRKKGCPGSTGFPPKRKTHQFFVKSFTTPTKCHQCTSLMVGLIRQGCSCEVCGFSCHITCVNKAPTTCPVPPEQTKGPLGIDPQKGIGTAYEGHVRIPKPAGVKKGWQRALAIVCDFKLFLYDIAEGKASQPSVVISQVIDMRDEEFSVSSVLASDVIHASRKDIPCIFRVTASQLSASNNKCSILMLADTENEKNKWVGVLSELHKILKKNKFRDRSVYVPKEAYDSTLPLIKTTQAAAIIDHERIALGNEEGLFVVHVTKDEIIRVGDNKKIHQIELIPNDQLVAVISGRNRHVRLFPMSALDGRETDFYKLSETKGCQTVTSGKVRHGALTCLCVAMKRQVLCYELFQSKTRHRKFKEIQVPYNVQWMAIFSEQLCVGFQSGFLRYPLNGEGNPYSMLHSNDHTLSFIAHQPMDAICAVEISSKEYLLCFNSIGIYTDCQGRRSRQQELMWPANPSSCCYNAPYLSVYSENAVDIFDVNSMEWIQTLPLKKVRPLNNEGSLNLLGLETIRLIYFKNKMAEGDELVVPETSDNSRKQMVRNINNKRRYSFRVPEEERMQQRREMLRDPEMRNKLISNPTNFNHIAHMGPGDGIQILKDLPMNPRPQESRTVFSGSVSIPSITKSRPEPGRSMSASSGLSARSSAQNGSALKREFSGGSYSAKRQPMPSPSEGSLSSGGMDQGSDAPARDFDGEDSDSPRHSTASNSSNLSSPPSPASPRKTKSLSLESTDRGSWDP
Serine/threonine-protein kinase tousled-like 2 (Homo sapiens), sequence (Q86UE8 whole entry, looked up): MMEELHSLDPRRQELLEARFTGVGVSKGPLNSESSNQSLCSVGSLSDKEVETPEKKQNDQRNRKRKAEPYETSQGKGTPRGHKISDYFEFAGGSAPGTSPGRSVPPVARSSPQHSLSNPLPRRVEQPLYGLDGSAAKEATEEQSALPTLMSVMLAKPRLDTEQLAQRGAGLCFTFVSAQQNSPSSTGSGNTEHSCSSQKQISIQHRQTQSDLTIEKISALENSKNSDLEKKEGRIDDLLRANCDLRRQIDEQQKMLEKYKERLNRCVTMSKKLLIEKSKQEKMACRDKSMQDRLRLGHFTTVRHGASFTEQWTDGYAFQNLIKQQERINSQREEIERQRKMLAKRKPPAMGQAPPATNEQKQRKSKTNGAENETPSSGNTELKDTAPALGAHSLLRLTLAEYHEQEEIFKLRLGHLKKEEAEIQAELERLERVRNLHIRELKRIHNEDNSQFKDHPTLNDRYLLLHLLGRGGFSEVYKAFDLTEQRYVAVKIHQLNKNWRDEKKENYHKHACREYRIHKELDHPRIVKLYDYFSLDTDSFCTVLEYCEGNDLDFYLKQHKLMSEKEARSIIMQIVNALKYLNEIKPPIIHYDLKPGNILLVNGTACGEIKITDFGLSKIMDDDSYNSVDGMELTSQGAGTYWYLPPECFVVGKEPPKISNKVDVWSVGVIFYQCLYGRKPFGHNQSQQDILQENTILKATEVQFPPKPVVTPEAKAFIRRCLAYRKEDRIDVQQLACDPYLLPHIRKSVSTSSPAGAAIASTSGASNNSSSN
Thromboxane-A synthase (Homo sapiens), sequence (P24557 whole entry): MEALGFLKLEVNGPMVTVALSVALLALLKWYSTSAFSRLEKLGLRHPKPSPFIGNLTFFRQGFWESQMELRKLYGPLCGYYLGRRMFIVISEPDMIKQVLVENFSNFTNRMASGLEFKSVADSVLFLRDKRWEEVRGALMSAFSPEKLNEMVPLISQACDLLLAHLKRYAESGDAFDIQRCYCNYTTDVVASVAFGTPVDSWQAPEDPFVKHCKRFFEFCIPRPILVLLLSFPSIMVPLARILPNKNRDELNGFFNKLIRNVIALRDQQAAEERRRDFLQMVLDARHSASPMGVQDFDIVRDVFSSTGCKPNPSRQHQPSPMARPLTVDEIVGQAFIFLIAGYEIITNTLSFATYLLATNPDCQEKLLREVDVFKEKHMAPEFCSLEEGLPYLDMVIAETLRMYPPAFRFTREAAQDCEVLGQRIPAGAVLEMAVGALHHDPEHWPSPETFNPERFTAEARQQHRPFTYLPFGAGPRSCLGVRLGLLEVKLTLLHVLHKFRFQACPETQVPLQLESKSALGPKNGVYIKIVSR

COc1cc(N(C)c2ccnc3ccc(C(F)(F)F)cc23)cc(OC)c1OC
% binding [1]: 100%

CN(C)CCOc1ccc(-c2nc(-c3ccncc3)c(-c3ccc4c(c3)CC/C4=N\O)[nH]2)cc1
% of control [2]: 78%

C=CC(=O)Nc1ccc(C(=O)Nc2[nH]nc3c2CN(C(=O)N[C@H](CN(C)C)c2ccccc2)C3(C)C)cc1
% of engagement [3]: 0.8%

Cc1cc([C@@H](C)Nc2ccccc2C(=O)O)c2nc(N3CCOCC3)cc(=O)n2c1 [AZD-6482]
% of control [4]: 88%

Cn1cc(-n2cnc3c(NCc4nc5cc(Cl)c(Cl)cc5[nH]4)nc(N4CCOCC4)nc32)cn1
% of control [5]: 1.33%

CC[C@@H]1[C@H](F)C(=O)N[C@@H]1COc1nccc2cc(C(N)=O)c(OC)cc12 [ZIMLOVISERTIB]
% of inhibition ([6]; at 0.01 µM): -12.1% | % of inhibition ([6]; at 0.04 µM): -3.2% | % of inhibition ([6]; at 0.2 µM): 0% | % of inhibition ([6]; at 1 µM): -6.5% | % of inhibition ([6]; at 5 µM): -21.9%

CC[C@@H](Nc1c(C#N)c(-c2ccc(-c3cccc(C)c3F)cc2)nc2cnccc12)C(=O)O [BAY-091]
% of inhibition [7]: 98%

N#Cc1cccc(-c2c[nH]c3ncnc(N4CCOCC4)c23)c1
% of inhibition [8]: 30%
